Laboratory results from patent publication US20210215714A1, “COMPLEMENT ALTERNATIVE PATHWAY-ASSOCIATED NEPHROPATHY BIOMARKERS” (Achillion Pharmaceuticals, Inc., priority 2018, published 2021).

Assay: Phase 2a study in C3G / IC-MPGN patients: urine albumin-to-creatinine ratio (ACR);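 also: urine samples from C3G or IC-MPGN patients read by central lab dipstick on automated urine chemistry analyzer, ratio computed from albumin and creatinine pad absorbance, healthy volunteer urine as control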
Details: for ACR GEOMEAN / ACR MEAN: patients A-F
From the text: 10 patients with either C3 Glomerulopathy (C3G) or Immune-Complex Membranoproliferative Glomerulonephritis (IC-MPGN) are to be enrolled across two dose groups. […] Inclusion criteria include a clinical diagnosis of C3G (C3 glomerulonephritis [C3GN] or dense deposit disease [DDD], the 2 types of C3G) or idiopathic immune-complex membranoproliferative glomerulonephritis (IC-MPGN) by renal biopsy for at least 3 months prior to dosing, with the pathologic diagnosis verified by review of the renal biopsy by the study central pathologist. Patients must have low C3 levels (<50% of the lower limit of normal) and normal or near-normal C4 levels (>90% of the lower limit of normal). Group 1 has enrolled 2 out of 2 planned patients and Group 2 has enrolled 4 out of 8 planned patients.
Albumin and creatinine levels were measured in urine samples by a central reference lab using a urine dipstick method. Urine from non-study healthy volunteers served as control samples. An automatic urinary chemical analyzer was used with a dye for the detection of albumin at >8 mg/dL. Also present on the dipstick was a pad for detection of creatinine that uses the peroxidase activity of the copper-creatinine complex. The ACR ratio was automatically calculated by the analyzer based on the light absorbent readings of the albumin and creatinine test pads.

## CC(=O)c1nn(CC(=O)N2C[C@H](F)C[C@H]2C(=O)Nc2cccc(Br)n2)c2ccc(-c3cnc(C)nc3)cc12 [Compound 1, (2S,4R)-1-(2-(3-acetyl-5-(2-methylpyrimidin-5-yl)-1H-indazol-1-yl)acetyl)-N-(6-bromopyridin-2-yl)-4-fluoropyrrolidine-2-carboxamide]
Patient A, 100 mg TID, Day 1/0 Hour
  ACR: 259 mg/mmol
Patient A, 100 mg TID, Day 4
  ACR: 218 mg/mmol
Patient A, 100 mg TID, Day 7/0 Hour
  ACR: 233 mg/mmol
Patient A, 100 mg TID, Day 10
  ACR: 228 mg/mmol
Patient A, 100 mg TID, Day 14
  ACR: 175 mg/mmol
Patient A, 100 mg TID, Day 15 Taper
  ACR: 144 mg/mmol
Patient A, 100 mg TID, Day 16 Taper
  ACR: 143 mg/mmol
Patient A, 100 mg TID, Day 17 Taper
  ACR: 115 mg/mmol
Patient A, 100 mg TID, Day 21 Taper
  ACR: 140 mg/mmol
Patient A, 100 mg TID, Follow-Up Day 24
  ACR: 138 mg/mmol
Patient A, 100 mg TID, Follow-Up Day 28
  ACR: 132 mg/mmol
Patient A, 100 mg TID, Follow-Up Day 35
  ACR: 160 mg/mmol
Patient A, 100 mg TID, Follow-Up Day 49
  ACR: 147 mg/mmol
Patient A, 100 mg TID, Screen
  ACR: 228 mg/mmol
Patient B, 100 mg TID, Day 1/0 Hour
  ACR: 580 mg/mmol
Patient B, 100 mg TID, Day 4
  ACR: 264 mg/mmol
Patient B, 100 mg TID, Day 7/0 Hour
  ACR: 249 mg/mmol
Patient B, 100 mg TID, Day 10
  ACR: 253 mg/mmol
Patient B, 100 mg TID, Day 14
  ACR: 343 mg/mmol
Patient B, 100 mg TID, Day 15 Taper
  ACR: 325 mg/mmol
Patient B, 100 mg TID, Day 16 Taper
  ACR: 329 mg/mmol
Patient B, 100 mg TID, Day 17 Taper
  ACR: 263 mg/mmol
Patient B, 100 mg TID, Day 21 Taper
  ACR: 373 mg/mmol
Patient B, 100 mg TID, Follow-Up Day 24
  ACR: 469 mg/mmol
Patient B, 100 mg TID, Follow-Up Day 28
  ACR: 381 mg/mmol
Patient B, 100 mg TID, Follow-Up Day 49
  ACR: 140 mg/mmol
Patient B, 100 mg TID, Screen
  ACR: 486 mg/mmol
Patient C, 200 mg TID, Day 1/0 Hour
  ACR: 58 mg/mmol
Patient C, 200 mg TID, Day 4
  ACR: 27 mg/mmol
Patient C, 200 mg TID, Day 7/0 Hour
  ACR: 22 mg/mmol
Patient C, 200 mg TID, Day 10
  ACR: 35 mg/mmol
Patient C, 200 mg TID, Day 14
  ACR: 30 mg/mmol
Patient C, 200 mg TID, Day 15 Taper
  ACR: 44 mg/mmol
Patient C, 200 mg TID, Day 16 Taper
  ACR: 26 mg/mmol
Patient C, 200 mg TID, Day 17 Taper
  ACR: 32 mg/mmol
Patient C, 200 mg TID, Day 21 Taper
  ACR: 23 mg/mmol
Patient C, 200 mg TID, Follow-Up Day 24
  ACR: 32 mg/mmol
Patient C, 200 mg TID, Follow-Up Day 28
  ACR: 47 mg/mmol
Patient C, 200 mg TID, Follow-Up Day 49
  ACR: 20 mg/mmol
Patient C, 200 mg TID, Screen
  ACR: 44 mg/mmol
Patient C, 200 mg TID, Screen 1
  ACR: 128 mg/mmol
Patient D, 200 mg TID, Day 1/0 Hour
  ACR: 224 mg/mmol
Patient D, 200 mg TID, Day 4
  ACR: 279 mg/mmol
Patient D, 200 mg TID, Day 7/0 Hour
  ACR: 322 mg/mmol
Patient D, 200 mg TID, Day 10
  ACR: 648 mg/mmol
Patient D, 200 mg TID, Day 14
  ACR: 286 mg/mmol
Patient D, 200 mg TID, Day 15 Taper
  ACR: 328 mg/mmol
Patient D, 200 mg TID, Day 17 Taper
  ACR: 586 mg/mmol
Patient D, 200 mg TID, Day 21 Taper
  ACR: 564 mg/mmol
Patient D, 200 mg TID, Follow-Up Day 24
  ACR: 282 mg/mmol
Patient D, 200 mg TID, Follow-Up Day 28
  ACR: 577 mg/mmol
Patient D, 200 mg TID, Follow-Up Day 35
  ACR: 398 mg/mmol
Patient D, 200 mg TID, Follow-Up Day 49
  ACR: 636 mg/mmol
Patient D, 200 mg TID, Screen
  ACR: 579 mg/mmol
Patient D, 200 mg TID, Screen 1
  ACR: 160 mg/mmol
Patient E, 200 mg TID, Day 1/0 Hour
  ACR: 424 mg/mmol
Patient E, 200 mg TID, Day 4
  ACR: 418 mg/mmol
Patient E, 200 mg TID, Day 7/0 Hour
  ACR: 533 mg/mmol
Patient E, 200 mg TID, Day 10
  ACR: 625 mg/mmol
Patient E, 200 mg TID, Day 14
  ACR: 264 mg/mmol
Patient E, 200 mg TID, Day 15 Taper
  ACR: 327 mg/mmol
Patient E, 200 mg TID, Day 16 Taper
  ACR: 277 mg/mmol
Patient E, 200 mg TID, Day 17 Taper
  ACR: 475 mg/mmol
Patient E, 200 mg TID, Day 21 Taper
  ACR: 257 mg/mmol
Patient E, 200 mg TID, Follow-Up Day 24
  ACR: 303 mg/mmol
Patient E, 200 mg TID, Follow-Up Day 28
  ACR: 307 mg/mmol
Patient E, 200 mg TID, Follow-Up Day 49
  ACR: 327 mg/mmol
Patient F, 200 mg TID, Day 4
  ACR: 152 mg/mmol
Patient F, 200 mg TID, Day 7/0 Hour
  ACR: 94 mg/mmol
Patient F, 200 mg TID, Day 14
  ACR: 184 mg/mmol
Patient F, 200 mg TID, Day 15 Taper
  ACR: 720 mg/mmol
Patient F, 200 mg TID, Day 16 Taper
  ACR: 235 mg/mmol
Patient F, 200 mg TID, Day 17 Taper
  ACR: 475 mg/mmol
Patient F, 200 mg TID, Day 21 Taper
  ACR: 348 mg/mmol
Patient F, 200 mg TID, Follow-Up Day 24
  ACR: 279 mg/mmol
Patient F, 200 mg TID, Follow-Up Day 28
  ACR: 253 mg/mmol
Patient F, 200 mg TID, Follow-Up Day 35
  ACR: 168 mg/mmol
Patient F, 200 mg TID, Follow-Up Day 49
  ACR: 564 mg/mmol
Patient F, 200 mg TID, Screen
  ACR: 308 mg/mmol
Patients A, B, C, E, and F, two-week treatment
  reductions in ACR: approximately 50%
Day 1/0 Hour
  ACR GEOMEAN: 249.6 mg/mmol
  ACR MEAN: 306.4 mg/mmol
Day 4
  ACR GEOMEAN: 174.0 mg/mmol
  ACR MEAN: 226.3 mg/mmol
Day 7/0 Hour
  ACR GEOMEAN: 164.9 mg/mmol
  ACR MEAN: 242.1 mg/mmol
Day 14
  ACR GEOMEAN: 171.4 mg/mmol
  ACR MEAN: 213.8 mg/mmol
Day 15 Taper
  ACR GEOMEAN: 232.4 mg/mmol
  ACR MEAN: 314.6 mg/mmol
Day 17 Taper
  ACR GEOMEAN: 224.2 mg/mmol
  ACR MEAN: 324.2 mg/mmol
Day 21 Taper
  ACR GEOMEAN: 197.9 mg/mmol
  ACR MEAN: 284.0 mg/mmol
Follow-Up Day 24
  ACR GEOMEAN: 191.6 mg/mmol
  ACR MEAN: 250.6 mg/mmol
Follow-Up Day 28
  ACR GEOMEAN: 217.5 mg/mmol
  ACR MEAN: 282.6 mg/mmol
Follow-Up Day 49
  ACR GEOMEAN: 191.1 mg/mmol
  ACR MEAN: 305.6 mg/mmol
